US11470846B2, “Herbicidal pyridino-/pyrimidino-thiazoles” (SYNGENTA PARTICIPATIONS AG, priority 2014, dated 2022)

Key:
Assay type in all cases: in vivo
[1] = tested on: Alopecurus myosuroides (ALOMY); assay: Pre-emergence herbicidal activity; conditions: pre-emergence application, 1000 g/Ha, evaluated after 13 days, scale 0-5
Protocol: (§1) B1 Pre-Emergence Herbicidal Activity
(§2) Seeds of a variety of test species were sown in standard soil in pots: Triticum aestivium (TRZAW), Oryza sativa (ORYSA), Avena fatua (AVEFA), Alopecurus myosuroides (ALOMY), Echinochloa crus-galli (ECHCG), Lolium perenne (LOLPE), Zea Mays (ZEAMX), Abutilon theophrasti (ABUTH), Amaranthus retroflexus (AMARE) and Setaria faberi (SETFA). After cultivation for one day (pre-emergence) under controlled conditions in a glasshouse (at 24/16° C., day/night; 14 hours light; 65% humidity), the plants were sprayed with an aqueous spray solution derived from the formulation of the technical active ingredient in acetone/water (50:50) solution containing 0.5% Tween 20 (polyoxyethelyene sorbitan monolaurate, CAS RN 9005-64-5). The test plants were then grown in a glasshouse under controlled conditions (at 24/16° C., day/night; 14 hours light; 65% humidity) and watered twice daily. After 13 days, the test was evaluated (5=total damage to plant; 0=no damage to plant).

[2] = tested on: Oryza sativa (ORYSA); assay: Pre-emergence herbicidal activity; conditions: pre-emergence application, 1000 g/Ha, evaluated after 13 days, scale 0-5
Protocol: as §1, §2

[3] = tested on: Echinochloa crus-galli (ECHCG); assay: Pre-emergence herbicidal activity; conditions: pre-emergence application, 1000 g/Ha, evaluated after 13 days, scale 0-5; Table 5
Protocol: as §1, §2

[4] = tested on: Avena fatua (AVEFA); assay: Pre-emergence herbicidal activity; conditions: pre-emergence application, 1000 g/Ha, evaluated after 13 days, scale 0-5
Protocol: as §1, §2

[5] = tested on: Lolium perenne (LOLPE); assay: Pre-emergence herbicidal activity; conditions: pre-emergence application, 1000 g/Ha, evaluated after 13 days, scale 0-5; Table 5
Protocol: as §1, §2

[6] = tested on: Triticum aestivium (TRZAW); assay: Pre-emergence herbicidal activity; conditions: pre-emergence application, 1000 g/Ha, evaluated after 13 days, scale 0-5
Protocol: as §1, §2

[7] = tested on: Alopecurus myosuroides (ALOMY); assay: Post-emergence herbicidal activity; conditions: post-emergence application, 1000 g/Ha, evaluated after 13 days, scale 0-5
Protocol: (§3) B2 Post-Emergence Herbicidal Activity
(§4) Seeds of a variety of test species were sown in standard soil in pots: Triticum aestivium (TRZAW), Oryza sativa (ORYSA), Avena fatua (AVEFA), Alopecurus myosuroides (ALOMY), Echinochloa crus-galli (ECHCG), Lolium perenne (LOLPE), Zea Mays (ZEAMX), Abutilon theophrasti (ABUTH), Amaranthus retroflexus (AMARE) and Setaria faberi (SETFA). After 8 days cultivation (post-emergence) under controlled conditions in a glasshouse (at 24/16° C., day/night; 14 hours light; 65% humidity), the plants were sprayed with an aqueous spray solution derived from the formulation of the technical active ingredient in acetone/water (50:50) solution containing 0.5% Tween 20 (polyoxyethelyene sorbitan monolaurate, CAS RN 9005-64-5). The test plants were then grown in a glasshouse under controlled conditions (at 24/16° C., day/night; 14 hours light; 65% humidity) and watered twice daily. After 13 days, the test was evaluated (5=total damage to plant; 0=no damage to plant).

[8] = tested on: Oryza sativa (ORYSA); assay: Post-emergence herbicidal activity; conditions: post-emergence application, 1000 g/Ha, evaluated after 13 days, scale 0-5
Protocol: as §3, §4

[9] = tested on: Echinochloa crus-galli (ECHCG); assay: Post-emergence herbicidal activity; conditions: post-emergence application, 1000 g/Ha, evaluated after 13 days, scale 0-5; Table 7
Protocol: as §3, §4

[10] = tested on: Avena fatua (AVEFA); assay: Post-emergence herbicidal activity; conditions: post-emergence application, 1000 g/Ha, evaluated after 13 days, scale 0-5
Protocol: as §3, §4

[11] = tested on: Lolium perenne (LOLPE); assay: Post-emergence herbicidal activity; conditions: post-emergence application, 1000 g/Ha, evaluated after 13 days, scale 0-5; Table 7
Protocol: as §3, §4

[12] = tested on: Triticum aestivium (TRZAW); assay: Post-emergence herbicidal activity; conditions: post-emergence application, 1000 g/Ha, evaluated after 13 days, scale 0-5
Protocol: as §3, §4

Structure (SMILES) | Control of weed species, ALOMY (damage score) [1] | Control of weed species, ORYSA (damage score) [2] | Control of weed species, ECHCG (damage score) [3] | Control of weed species, AVEFA (damage score) [4] | Control of weed species, LOLPE (damage score) [5] | Control of weed species, TRZAW (damage score) [6] | Control of weed species, ALOMY (damage score) [7] | Control of weed species, ORYSA (damage score) [8] | Control of weed species, ECHCG (damage score) [9] | Control of weed species, AVEFA (damage score) [10] | Control of weed species, LOLPE (damage score) [11] | Control of weed species, TRZAW (damage score) [12]
Cc1nc(-c2cccnc2)sc1N(C)C(=O)OC(C)(C)C [Compound A1, tert-butyl N-methyl-N-[4-methyl-2-(3-pyridyl)thiazol-5-yl]carbamate] | 2 | 2 | 4 | 4 | 2 | 2 | 0 | 1 | 4 | 4 | 4 | 0
Cc1nc(-c2cncnc2)sc1N(C)C(=O)OC(C)(C)C [Compound A2, tert-butyl N-methyl-N-(4-methyl-2-pyrimidin-5-yl-thiazol-5-yl)carbamate] | 0 | 1 | 5 | 3 | 2 | 0 | 1 | 1 | 5 | 5 | 3 | 1
Cc1nc(-c2cncc(F)c2)sc1N(C)C(=O)OC(C)(C)C [Compound A3, tert-butyl N-[2-(5-fluoro-3-pyridyl)-4-methyl-thiazol-5-yl]-N-methyl-carbamate] | 1 | 1 | 4 | 3 | 2 | 1 | 1 | 1 | 5 | 4 | 3 | 1
Cc1nc(-c2cncc(Cl)c2)sc1N(C)C(=O)OC(C)(C)C [Compound A4] | 1 | 0 | 4 | 4 | 2 | 0 | 0 | 1 | 4 | 5 | 2 | 1
Cc1nc(-c2cncc(F)c2)sc1NC(=O)OC(C)(C)C [Compound A35, tert-butyl N-[2-(5-fluoro-3-pyridyl)-4-methyl-thiazol-5-yl]carbamate] |  |  |  |  |  |  | 0 | 0 | 2 | 1 | 0 | 1
Cc1nc(-c2cccnc2)sc1N(C)C(=O)Oc1ccc([N+](=O)[O-])cc1 [Compound A61, (4-nitrophenyl) N-methyl-N-[4-methyl-2-(3-pyridyl)thiazol-5-yl]carbamate] |  |  |  |  |  |  | 0 | 0 | 1 | 2 | 1 | 1
